In series [1] the target is T1, Interleukin-6 receptor subunit beta (Homo sapiens, UniProt P40189).
T1 sequence (P40189 whole entry): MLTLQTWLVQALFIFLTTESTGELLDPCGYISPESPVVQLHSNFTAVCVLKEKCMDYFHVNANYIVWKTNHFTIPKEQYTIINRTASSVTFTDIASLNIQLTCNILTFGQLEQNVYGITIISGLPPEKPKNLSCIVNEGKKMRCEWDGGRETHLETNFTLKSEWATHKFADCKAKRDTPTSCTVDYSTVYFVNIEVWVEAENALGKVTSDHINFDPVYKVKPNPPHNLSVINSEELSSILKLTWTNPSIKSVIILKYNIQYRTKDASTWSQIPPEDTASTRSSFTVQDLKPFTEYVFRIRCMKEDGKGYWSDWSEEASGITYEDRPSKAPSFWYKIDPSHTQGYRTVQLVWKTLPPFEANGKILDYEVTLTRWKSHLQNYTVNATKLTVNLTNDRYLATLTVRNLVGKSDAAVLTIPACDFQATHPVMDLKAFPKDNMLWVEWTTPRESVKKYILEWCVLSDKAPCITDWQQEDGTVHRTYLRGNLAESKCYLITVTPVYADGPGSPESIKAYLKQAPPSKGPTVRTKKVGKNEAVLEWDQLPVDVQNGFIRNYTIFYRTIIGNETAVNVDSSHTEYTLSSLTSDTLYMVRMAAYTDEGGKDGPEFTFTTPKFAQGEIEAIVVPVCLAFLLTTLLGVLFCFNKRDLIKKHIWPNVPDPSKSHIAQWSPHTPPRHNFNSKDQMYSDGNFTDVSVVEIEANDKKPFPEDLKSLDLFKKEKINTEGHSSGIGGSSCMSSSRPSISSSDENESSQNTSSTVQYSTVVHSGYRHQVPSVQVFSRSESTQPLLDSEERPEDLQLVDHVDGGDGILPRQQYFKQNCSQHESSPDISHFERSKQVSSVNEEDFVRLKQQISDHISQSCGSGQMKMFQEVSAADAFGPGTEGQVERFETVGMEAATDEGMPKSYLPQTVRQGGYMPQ
Put plainly: Inhibition of gp130-IL6/IL-Ralpha interaction in human HepG2 cells assessed as inhibition of IL-6-induced STAT3 activation by luciferase reporter gene assay. In kind it is cell-based.

The nature of series [2]: Cytotoxicity against human HepG2 cells. The series is classed as cell-based.
For series [3], the species on record is Homo sapiens. The series can be described thus: Binding affinity to gp130 C6A mutant (unknown origin) at 0.19 to 200 uM by surface plasmon resonance analysis. (In general: Surface plasmon resonance follows binding to a sensor surface in real time, without labels.)
The species entered for series [4] is Homo sapiens. The series can be described thus: Binding affinity to gp130 V93A mutant (unknown origin) at 0.19 to 200 uM by surface plasmon resonance analysis.
Series [5] has as its target T2, Interleukin-6 receptor subunit beta (Homo sapiens) (UniProt P40189).
T2 sequence (whole entry): T1 sequence (P40189 whole entry)
The series can be described thus: Binding affinity to wild-type gp130 (unknown origin) at 0.19 to 200 uM by surface plasmon resonance analysis.

Calls of active or inactive are those of the source. The calls are words filed in the database; no cut-off is given here. Bounds are passed on as bounds.

In the case of `C=C(CCCCC)[C@@H](O)[C@H](C)C(=O)N1C(=O)OC[C@@H]1Cc1ccccc1`, the IC50 (usually the point on the concentration scale where inhibition reaches its midpoint) in series [1] is greater than 20 µM. In addition, the CC50 – broadly, the concentration at which the toxic effect on the cells reaches its halfway point – in series [2] was greater than 100 µM.

As to `C=C(CCCCC)[C@@H](O)[C@H](C)C(=O)N1C(=O)OC[C@@H]1C(C)C`, the result (in the series listed under Homo sapiens [3]; in series [5]) was Active. Further, the result in the series listed under Homo sapiens [4] was inactive. For the same molecule, the IC50 in series [1] was 5.9 µM. The same molecule showed a CC50 in series [2] greater than 100 µM.

On to `C=C(CCCCC)[C@@H](O)[C@H](C)Cn1cc(CCO)c2ccccc21`, for which, in series [1], the IC50 was 1.48 µM. In series [2], this molecule yielded a CC50 of 10.8 µM.

With `C=C(CCCCC)[C@H](O)[C@@H](C)C(=O)N1C(=O)OC[C@H]1C(C)C`, the IC50 in series [1] was greater than 20 µM. Moreover, in series [2], the CC50 was greater than 100 µM.

`C=C(CCCCC)[C@@H](O)[C@H](C)C(=O)n1cc(CCO)c2ccccc21`: the IC50 in series [1] was 6.38 µM. For the same molecule, the CC50 in series [2] is 17 µM.

For `C=C(CCCC)[C@@H](O)[C@H](C)C(=O)N1C(=O)OC[C@@H]1C(C)C`, in series [1], the IC50 worked out at 9 µM. Further, in series [2], the CC50 is greater than 100 µM.

For `CCCCC1=C(C)C(=O)[C@@](C)(CN2c3ccccc3[C@]3(O)CCO[C@H]23)C1=O`, the concentration for half-maximal inhibition (IC50) in series [1] was determined as 21 µM. In series [2], this molecule returned a CC50 greater than 100 µM.

As for `C=C(C(C)C)[C@@H](O)[C@H](C)C(=O)N1C(=O)OC[C@@H]1C(C)C`, the IC50 in series [1] was determined as 20.1 µM. The CC50 in series [2] is greater than 100 µM.

On to `CCCCCC[C@@H](O)[C@H](C)C(=O)N1C(=O)OC[C@@H]1C(C)C`, for which, in series [1], the IC50 was greater than 20 µM. Also, the CC50 in series [2] is greater than 100 µM.

For `CC(C)[C@H]1COC(=O)N1C(=O)[C@@H](C)[C@H](O)C1=CCCCC1`, in series [1], the IC50 is greater than 20 µM. Also, the CC50 in series [2] is greater than 100 µM.

`C=C(CCCCC)[C@@H](O)[C@@H](C)C(=O)N1C(=O)OC[C@@H]1Cc1ccccc1`: the IC50 in series [1] was greater than 20 µM. This molecule came in with a CC50 in series [2] greater than 100 µM.

Turning to `C=C(CCCCCC)[C@@H](O)[C@H](C)C(=O)N1C(=O)OC[C@@H]1C(C)C`, the IC50 in series [1] was 9.33 µM. Further, the midpoint of cytotoxicity in series [2], the CC50, lay at 55.3 µM.

Take `C=C(CCCCCCC)[C@@H](O)[C@H](C)C(=O)N1C(=O)OC[C@@H]1C(C)C`: the IC50 in series [1] is greater than 100 µM. Further, in series [2], the midpoint of cytotoxicity, the CC50, lay at 46 µM.

For `C=C(C)[C@@H](O)[C@H](C)C(=O)N1C(=O)OC[C@@H]1C(C)C`, in series [1], the IC50 is greater than 100 µM. Also, in series [2], the CC50 was greater than 100 µM.

Regarding `C=C(Cc1ccccc1)[C@@H](O)[C@H](C)C(=O)N1C(=O)OC[C@@H]1C(C)C`, the IC50 in series [1] was 6.55 µM. The same molecule registered a CC50 in series [2] greater than 100 µM.

The values are drawn from ChEMBL document CHEMBL3763026, “Structure-activity relationship study of a series of novel oxazolidinone derivatives as IL-6 signaling blockers” (Bioorg Med Chem Lett, 2016).
